Test results as given in PubChem BioAssay AID397 (SGCOxCompounds, 2006).

target: GTP-binding protein GEM (Homo sapiens) (UniProt P55040); test: GEM binders by thermal shift, biophysical, DSF, SYPRO orange, purified protein (AID 397); conditions: at 10 µM, protein 2 µM, buffer 10 mM HEPES, pH 7.5, NaCl 150 mM, DTT 1 mM, GDP 40 µM, MgCl 1 mM, active compounds read high
Sequence (P55040 whole entry, looked up): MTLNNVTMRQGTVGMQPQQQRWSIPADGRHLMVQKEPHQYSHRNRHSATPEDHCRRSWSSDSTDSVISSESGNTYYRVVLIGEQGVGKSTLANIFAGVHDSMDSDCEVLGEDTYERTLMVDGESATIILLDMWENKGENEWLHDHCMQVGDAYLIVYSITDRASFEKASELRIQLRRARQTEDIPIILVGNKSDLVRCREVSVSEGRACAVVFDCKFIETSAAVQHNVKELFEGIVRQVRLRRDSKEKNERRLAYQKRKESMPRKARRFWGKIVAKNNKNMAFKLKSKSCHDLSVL

Row | SMILES | Tm shift [Celsius]
1 | O=C1NC(=O)c2c1c1c3ccccc3[nH]c1c1[nH]c3cc(Br)ccc3c21 | 3.1

same assay, conditions: at 10 µM, protein 2 µM, buffer 10 mM HEPES, pH 7.5, NaCl 150 mM, DTT 1 mM, active compounds read high

Row | SMILES | Tm shift [Celsius]
2 | O=c1c(-c2ccc(O)cc2)coc2cc(O)cc(O)c12 | 5
3 | Oc1ccc(-c2nc(-c3ccc(F)cc3)c(-c3ccncc3)[nH]2)cc1 | 6
4 | NC(=O)c1ccc(-c2nc(-c3ccc4c(c3)OCCO4)c(-c3ccccn3)[nH]2)cc1 | 4.5
5 | O=c1cc(-c2ccc(O)cc2)oc2cc(O)cc(O)c12 | 4.1
6 | COC(=O)/C=C/c1cc(O)ccc1O | 3.2
7 | COc1cc2ncnc(Nc3cccc(Br)c3)c2cc1OC | 5.4
8 | CN(C)S(O)(O)c1ccc2c(c1)/C(=C/c1cc3c([nH]1)CCCC3)C(=O)N2 | 3.1
9 | Nc1cc2ncnc(Nc3cccc(Br)c3)c2cc1N | 3.5
10 | NC1=N/C(=C2/CCNC(=O)c3[nH]c(Br)cc32)C(=O)N1 | 3.1
11 | CN(C)CCCn1cc(C2=C(c3c[nH]c4ccccc34)C(=O)NC2=O)c2ccccc21 | 3.2

same assay, conditions: at 10 µM, protein 2 µM, buffer 10 mM HEPES, pH 7.5, NaCl 150 mM, DTT 1000 µM, with dithiothreitol, active compounds read high

Row | SMILES | Tm shift [Celsius]
12 | N#C/C(=C(/N)Sc1ccc(N)cc1)c1ccccc1C(F)(F)F | 2.8
13 | CC(O)(O)C1(O)C[C@@H]2O[C@@]1(C)n1c3ccccc3c3c4c(c5c6ccccc6n2c5c31)C(=O)NC4 (stereo partly specified) | 3
14 | CC(C)n1cnc2c(Nc3cccc(Cl)c3)nc(NCCO)nc21 | 2.3
15 | CC[C@H](CO)Nc1nc(NCc2ccccc2)c2ncn(C(C)C)c2n1 | 2.1
16 | Oc1cc(O)cc(/C=C/c2ccc(O)c(O)c2)c1 | 2.3
17 | Ic1cccc(CSc2nnc(-c3ccncc3)o2)c1 | 2.4
18 | CC(C)(C)c1nc2c3cc[nH]c(=O)c3c3cc(F)ccc3c2[nH]1 | 3
19 | C/C(O)=C(\C#N)C(=O)Nc1cc(Br)ccc1Br | 2.2
20 | O=S(=O)(c1cccc2c(Cl)cccc12)N1CCCNCC1 | 2.8
21 | C=C(Nc1cc(NC(=O)c2cccc(N(C)C)c2)ccc1C)c1ccc(O)cc1 | 2.8
22 | Nc1[nH]nc2nc3ccccc3nc12 | 2.5
23 | CCCCc1c(-c2ccc(O)cc2)[nH]c2nccnc12 | 2.7
24 | N#CC(Cc1ccc(O)c(O)c1)C(=O)Nc1ccccc1 (stereo unspecified) | 2.7
25 | O=C1Nc2ccccc2/C1=C\c1cnc[nH]1 | 2.5

same assay, conditions: at 10 µM, protein 2 µM, buffer 10 mM HEPES, pH 7.5, NaCl 150 mM, GDP 40 µM, active compounds read high

Row | SMILES | Tm shift [Celsius]
26 | COc1cc(O)c2c(c1)oc(=O)c1c3cc(O)c(O)cc3oc21 | 2.3
27 | Brc1c(Br)c(Br)c2n[nH]nc2c1Br | 2.5
28 | COc1cc(/C=C/C(=O)CC(=O)/C=C/c2ccc(O)c(OC)c2)ccc1O | 2.4

same assay, conditions: at 10 µM, protein 2 µM, buffer 10 mM HEPES, pH 7.5, NaCl 150 mM, active compounds read high

Row | SMILES | Tm shift [Celsius]
29 | CCOc1c(Br)ccc2c1sc1nc[nH]c(=O)c12 | 3.1
30 | Cc1ccc(NC(=O)c2snc3c(=O)[nH]cnc23)cc1 | 2.1
31 | Cc1ccc2c(c1Br)C(=Nc1ccc(Cl)cc1)C(=O)N2 | 2.3
